Measurements reported in US20100249093A1, “Substituted Heteroarylpiperidine Derivatives As Melanocortin-4 Receptor Modulators” (SANTHERA PHARMACEUTICALS (SCHWEIZ) AG, priority 2007, published 2010).

Key:
[1] = target: T1, human melanocortin-4 receptor (MC-4R) (Homo sapiens, UniProt P32245); assay: Functional assay: agonistic activity, cAMP production in membrane preparations compared with NDP-alpha-MSH, fluorescence polarization; type: biochemical; conditions: for Emax: cAMP produced compared to stimulation with NDP-alpha-MSH, read-out: % activation functional assay; for EC50: cAMP production, membrane preparations from HEK293 cells expressing human MC-4R, read-out: hMC-4R functional assay EC50
T1 construct: expressed in transfected cells; host or cells: HEK293

[2] = target: T1, human melanocortin-4 receptor (MC-4R); assay: Membrane binding assay: competition with fluorescence labeled NDP-alpha-MSH, fluorescence polarization; conditions: HEK293 cell membrane preparations expressing human MC-4R, read-out: hMC-4R binding assay IC50

T1 sequence (P32245 whole entry): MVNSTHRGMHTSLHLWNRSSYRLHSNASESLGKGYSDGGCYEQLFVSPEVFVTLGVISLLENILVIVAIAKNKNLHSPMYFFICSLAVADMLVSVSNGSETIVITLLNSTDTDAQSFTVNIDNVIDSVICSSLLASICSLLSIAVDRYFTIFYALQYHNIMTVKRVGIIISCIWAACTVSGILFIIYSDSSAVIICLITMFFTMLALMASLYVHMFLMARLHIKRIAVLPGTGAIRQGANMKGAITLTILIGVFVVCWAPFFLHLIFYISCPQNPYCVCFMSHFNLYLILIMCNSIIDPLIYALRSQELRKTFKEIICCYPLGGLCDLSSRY

SMILES	Emax [1]	IC50 [2]	EC50 [1]
CN1CCN(CCOc2cccnc2C2CCN(C(=O)[C@@H](Cc3ccc(Cl)cc3Cl)NC(=O)N3CCCC3)CC2)CC1 [Example 37]	-2%	100 to 1000 nM	
CC(C)[C@H](COc1cccnc1C1CCN(C(=O)[C@@H](Cc2ccc(Cl)cc2Cl)NC(=O)N2CCCC2)CC1)N(C)C [Example 30]	-8%	≤ 100 nM	
CC[C@@H](CN1CCCC1)Oc1cccnc1C1CCN(C(=O)[C@@H](Cc2ccc(Cl)cc2Cl)NC(=O)N2CCCC2)CC1 [Example 17]	0%	≤ 100 nM	
O=C(N[C@H](Cc1ccc(Cl)cc1Cl)C(=O)N1CCC(c2cccnc2OCCN2CCCC2)CC1)N1CCCC1 [Example 5]	0%	≤ 100 nM	
CC[C@H](COc1cccnc1C1CCN(C(=O)[C@@H](Cc2ccc(Cl)cc2Cl)NC(=O)N2CC(C)(O)C2)CC1)N1CCCC1 [Example 99]	0%	≤ 100 nM	
CC[C@H](COc1cccnc1C1CCN(C(=O)[C@@H](Cc2ccc(Cl)cc2Cl)NC(=O)N2CC(O)(C3CC3)C2)CC1)N(C)C [Example 123]	3%	≤ 100 nM	
CN1CCC(Oc2cccnc2C2CCN(C(=O)[C@@H](Cc3ccc(Cl)cc3Cl)NC(=O)N3CCCC3)CC2)CC1 [Example 38]	-5%	100 to 1000 nM	
CC[C@H](COc1cccnc1C1CCN(C(=O)[C@@H](Cc2ccc(Cl)cc2Cl)NC(=O)N2CC(O)C2)CC1)N1CCCC1 [Example 84]	0%	≤ 100 nM	
CC[C@H](COc1cccnc1C1CCN(C(=O)[C@@H](Cc2ccc(Cl)cc2Cl)NC(=O)N(C)CC(C)(C)O)CC1)N(C)C [Example 111]	-23%	≤ 100 nM	
CC[C@H](COc1cccnc1C1CCN(C(=O)[C@@H](Cc2ccc(Cl)cc2Cl)NC(=O)N2CC[C@@H](F)C2)CC1)N1CCCC1 [Example 81]	0%	≤ 100 nM	
O=C(N[C@H](Cc1ccc(Cl)cc1Cl)C(=O)N1CCC(c2ncccc2OCCN2CCCC2)CC1)N1CCCC1 [Example 14]	0%	100 to 1000 nM	
CN1CC(Oc2cccnc2C2CCN(C(=O)[C@@H](Cc3ccc(Cl)cc3Cl)NC(=O)N3CCCC3)CC2)C1 [Example 41]	-1%	100 to 1000 nM	
CN1CCN(Cc2cccnc2C2CCN(C(=O)[C@@H](Cc3ccc(Cl)cc3Cl)NC(=O)N3CCCC3)CC2)CC1 [Example 28]	0%	100 to 1000 nM	
CC[C@H](COc1cccnc1C1CCN(C(=O)[C@@H](Cc2ccc(Cl)cc2Cl)NC(=O)N2CCC(O)CC2)CC1)N1CCCC1 [Example 96]	0%	≤ 100 nM	
CC[C@H](COc1cccnc1C1CCN(C(=O)[C@@H](Cc2ccc(Cl)cc2Cl)NC(=O)N2CC[C@@H](O)C2)CC1)N1CCCC1 [Example 80]	0%	≤ 100 nM	
CC[C@H](COc1cccnc1C1CCN(C(=O)[C@@H](Cc2ccc(Cl)cc2Cl)NC(=O)N2CCSC2)CC1)N1CCCC1 [Example 88]	0%	≤ 100 nM	
CN1CCC[C@H](Oc2cccnc2C2CCN(C(=O)[C@@H](Cc3ccc(Cl)cc3Cl)NC(=O)N3CC[C@H](O)C3)CC2)C1 [Example 141]	-3%	≤ 100 nM	
CC[C@@H](COc1cccnc1C1CCN(C(=O)[C@@H](Cc2ccc(Cl)cc2Cl)NC(=O)N2CCCC2)CC1)N(C)C [Example 33]	0%	100 to 1000 nM	
Cc1cnc(N(C)CCN2CCCC2)c(C2CCN(C(=O)[C@@H](Cc3ccc(Cl)cc3Cl)NC(=O)N3CCCC3)CC2)c1 [Example 3]	0%	100 to 1000 nM	
CC[C@H](COc1cccnc1C1CCN(C(=O)[C@@H](Cc2ccc(Cl)cc2Cl)NC(=O)N2CC[C@H](O)C2)CC1)N(C)C [Example 103]	-9%	≤ 100 nM	≤ 100 nM
CC[C@@H](CN(C)C)Oc1cc(F)cnc1C1CCN(C(=O)[C@@H](Cc2ccc(Cl)cc2Cl)NC(=O)N2CCCC2)CC1 [Example 61]	1%	≤ 100 nM	
CC[C@H](COc1ccncc1C1CCN(C(=O)[C@@H](Cc2ccc(Cl)cc2Cl)NC(=O)N2CCCC2)CC1)N(C)C [Example 13]	0%	100 to 1000 nM	
CN1CCC[C@@H]1COc1cccnc1C1CCN(C(=O)[C@@H](Cc2ccc(Cl)cc2Cl)NC(=O)N2CCCC2)CC1 [Example 45]	-27%	≤ 100 nM	100 to 1000 nM

SMILES	Emax [1]	IC50 [2]	EC50 [1]
CC[C@H](COc1cccnc1C1CCN(C(=O)[C@@H](Cc2ccc(Cl)cc2Cl)NC(=O)N2CCC=N2)CC1)N1CCCC1 [Example 95]	0%	≤ 100 nM	
CC[C@@H](CN(C)C)Oc1cccnc1C1CCN(C(=O)[C@@H](Cc2ccc(Cl)cc2Cl)NC(=O)N(C)CC)CC1 [Example 135]	3%	≤ 100 nM	
CC[C@H](COc1cccnc1C1CCN(C(=O)[C@@H](Cc2ccc(Cl)cc2Cl)NC(=O)N2CCC(O)(CC3CC3)C2)CC1)N(C)C (some centres unmarked) [Example 130]	-2%	≤ 100 nM	
Cc1ccc(C2CCN(C(=O)[C@@H](Cc3ccc(F)cc3Cl)NC(=O)N3CCCC3)CC2)c(N2CCN(C)CC2)n1 [Example 66]	0%	100 to 1000 nM	
CN1CC[C@@H](Oc2cccnc2C2CCN(C(=O)[C@@H](Cc3ccc(Cl)cc3Cl)NC(=O)N3CCCC3)CC2)C1 [Example 43]	0%	100 to 1000 nM	
CC[C@H](COc1cccnc1C1CCN(C(=O)[C@@H](Cc2ccc(Cl)cc2Cl)NC(=O)N2CC[C@@H](CO)C2)CC1)N(C)C [Example 115]	-8%	≤ 100 nM	
CC[C@H](COc1cccnc1C1CCN(C(=O)[C@@H](Cc2ccc(Cl)cc2Cl)NC(=O)N2C[C@@H](C)O[C@@H](C)C2)CC1)N1CCCC1 [Example 93]	0%	≤ 100 nM	
Cc1ccc(C2CCN(C(=O)[C@@H](Cc3ccc(Cl)cc3Cl)NC(=O)N3CCCC3)CC2)c(OCCN2CCCC2)n1 [Example 6]	0%	≤ 100 nM	
Cc1ccc(C2CCN(C(=O)[C@@H](Cc3ccc(Cl)cc3F)NC(=O)N3CCCC3)CC2)c(N2CCN(C)CC2)n1 [Example 65]	0%	≤ 100 nM	
CC[C@H](COc1cccnc1C1CCN(C(=O)[C@@H](Cc2ccc(Cl)cc2Cl)NC(=O)N2CCC(C)(O)CC2)CC1)N(C)C [Example 112]	-8%	≤ 100 nM	
Cc1ccc(C2CCN(C(=O)[C@@H](Cc3ccc(F)cc3F)NC(=O)N3CCCC3)CC2)c(N2CCN(C)CC2)n1 [Example 67]	33%	> 1000 nM	> 1000 nM
CC[C@H](COc1cccnc1C1CCN(C(=O)[C@@H](Cc2ccc(Cl)cc2Cl)NC(=O)N2CC(O)(C(C)C)C2)CC1)N(C)C [Example 122]	0%	≤ 100 nM	
C#CC1(O)CN(C(=O)N[C@H](Cc2ccc(Cl)cc2Cl)C(=O)N2CCC(c3ncccc3OC[C@@H](CC)N(C)C)CC2)C1 [Example 118]	11%	≤ 100 nM	
CC[C@H](COc1cccnc1C1CCN(C(=O)[C@@H](Cc2ccc(Cl)cc2Cl)NC(=O)N2CC(O)C2)CC1)N(C)C [Example 102]	-1%	≤ 100 nM	
CC[C@H](COc1cccnc1C1CCN(C(=O)[C@@H](Cc2ccc(Cl)cc2Cl)NC(=O)N(C)C)CC1)N1CCCC1 [Example 77]	0%	≤ 100 nM	
CC[C@H]1CN(C)CCN1Cc1cccnc1C1CCN(C(=O)[C@@H](Cc2ccc(Cl)cc2Cl)NC(=O)N2CCCC2)CC1 [Example 50]	0%	≤ 100 nM	
CC[C@H](COc1cc(F)cnc1C1CCN(C(=O)[C@@H](Cc2ccc(Cl)cc2Cl)NC(=O)N2CCCC2)CC1)N(C)C [Example 60]	-12%	≤ 100 nM	
CC[C@@H](CN(C)C)Oc1cccnc1C1CCN(C(=O)[C@@H](Cc2ccc(Cl)cc2Cl)NC(=O)N2CC[C@H](O)C2)CC1 [Example 137]	8%	≤ 100 nM	
CC[C@H](COc1cc(C)cnc1C1CCN(C(=O)[C@@H](Cc2ccc(Cl)cc2Cl)NC(=O)N2CCCC2)CC1)N1CCCC1 [Example 24]	0%	≤ 100 nM	
CC[C@@H](CN1CCCC1)Oc1ccncc1C1CCN(C(=O)[C@@H](Cc2ccc(Cl)cc2Cl)NC(=O)N2CCCC2)CC1 [Example 12]	0%	≤ 100 nM	
CC[C@H](COc1cc(F)cnc1C1CCN(C(=O)[C@@H](Cc2ccc(Cl)cc2Cl)NC(=O)N2CC(O)C2)CC1)N(C)C [Example 75]	-1%	≤ 100 nM	
CN1CCN(Cc2cc(F)cnc2C2CCN(C(=O)[C@@H](Cc3ccc(Cl)cc3Cl)NC(=O)N3CC(O)C3)CC2)CC1 [Example 144]	2%	≤ 100 nM	
CC[C@H](COc1cccnc1C1CCN(C(=O)[C@@H](Cc2ccc(Cl)cc2Cl)NC(=O)N2CC(O)(C(F)(F)F)C2)CC1)N(C)C [Example 129]	-5%	≤ 100 nM	
